Laboratory results: BindingDB's records for doi:10.1016/s0960-894x(98)00264-9 (Royal Danish School of Pharmacy, 1999)

Tests used:
[1] = Compound was evaluated for agonistic activity against mGluR2 alpha metabotropic receptor subtype in rat cortical slice model
[2] = Compound was evaluated for agonistic activity against mGluR4a alpha metabotropic receptor subtype in rat cortical slice model

## CNC(C(=O)O)c1cc(=O)[nH]o1 (stereo unspecified) [(3-Hydroxy-isoxazol-5-yl)-methylamino-acetic acid]
[1]
  EC50: > 1 mM
[2]
  EC50: > 1 mM

## O=C(O)C(NCc1ccccc1)c1cc(=O)[nH]o1 (stereo unspecified) [Benzylamino-(3-hydroxy-isoxazol-5-yl)-acetic acid]
[1]
  EC50: > 1 mM
[2]
  EC50: > 1 mM

## CCNC(C(=O)O)c1cc(=O)[nH]o1 (stereo unspecified) [Ethylamino-(3-hydroxy-isoxazol-5-yl)-acetic acid]
[1]
  EC50: > 1 mM
[2]
  EC50: > 1 mM
